Laboratory results: ChEMBL document CHEMBL1201862, “PubChem BioAssay data set” (2004)
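Compound exposure: 48 hours, 5 concentrations, 96-well plates. The concentration for 50% growth inhibition is given as GI50.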 Activity calls are given as the source filed them. Rule as the data show it: active = GI50 up to about 1.1 µM and inactive = higher.

Legend:
Experiment in all cases: NCI tumour cell line growth inhibition, 48 h
A549 = tested on: A549
ACHN = tested on: ACHN
CAKI-1 = tested on: CAKI-1
HCT-116 = tested on: HCT-116
HOP-92 = tested on: HOP-92
NCI-H23 = tested on: NCI-H23
NCI-H522 = tested on: NCI-H522
OVCAR-8 = tested on: OVCAR-8
SK-MEL-28 = tested on: SK-MEL-28
SN12C = tested on: SN12C
SNB-75 = tested on: SNB-75
SW-620 = tested on: SW-620
TK-10 = tested on: TK-10
UACC-257 = tested on: UACC-257
UACC-62 = tested on: UACC-62
OVCAR-5 = tested on: OVCAR-5

Measured: GI50

CN(C)CN(C)c1nc(N(C)C)nc(N(C)CN(C)C)n1
inactive: A549 > 100 µM | ACHN 45.4 µM | CAKI-1 > 100 µM | HCT-116 32 µM | HOP-92 63 µM | NCI-H23 27.2 µM | NCI-H522 > 100 µM | OVCAR-8 27.9 µM | SK-MEL-28 25.8 µM | SN12C 63.5 µM | SNB-75 60.3 µM | SW-620 23.9 µM | TK-10 > 100 µM | UACC-257 34.7 µM | UACC-62 19.8 µM

Cc1ccc(Nc2nc(C)c(C(/C=C/c3ccc(/C=C/C(=N/NC(=O)C[n+]4ccccc4)c4sc(Nc5ccc(C)cc5[N+](=O)[O-])nc4C)cc3)=N\NC(=O)C[n+]3ccccc3)s2)c([N+](=O)[O-])c1
inactive: A549 > 100 µM | ACHN 82.8 µM | CAKI-1 48.6 µM | HCT-116 > 100 µM | NCI-H23 > 100 µM | NCI-H522 > 100 µM | OVCAR-5 50.8 µM | OVCAR-8 > 100 µM | SK-MEL-28 > 100 µM | SN12C 55.8 µM | SNB-75 33.5 µM | SW-620 > 100 µM | TK-10 51.3 µM | UACC-257 > 100 µM | UACC-62 20.6 µM

NCCNCc1c2ccccc2c(CNCCN)c2ccccc12
inactive: A549 12.1 µM | ACHN 34.8 µM | HCT-116 5.18 µM | HOP-92 22.2 µM | NCI-H23 13.1 µM | NCI-H522 8.13 µM | OVCAR-5 27.4 µM | OVCAR-8 13.2 µM | SK-MEL-28 > 10 µM | SN12C 10.5 µM | SW-620 11.1 µM | TK-10 69 µM | UACC-257 16.4 µM | UACC-62 22 µM

O=C(O)/C(Cl)=C(\Cl)C(=O)Nc1ccccc1
inactive: A549 > 100 µM | ACHN > 100 µM | CAKI-1 > 100 µM | HCT-116 > 100 µM | HOP-92 > 100 µM | NCI-H23 > 100 µM | OVCAR-5 > 100 µM | SK-MEL-28 > 100 µM | SN12C > 100 µM | SNB-75 > 100 µM | SW-620 > 100 µM | TK-10 > 100 µM | UACC-257 > 100 µM | UACC-62 > 100 µM

O=S(=O)(C1=CC(S(=O)(=O)c2ccccc2)COC1)c1ccccc1 (stereo not drawn)
inactive: A549 > 100 µM | ACHN > 100 µM | CAKI-1 > 100 µM | HCT-116 > 100 µM | NCI-H23 > 100 µM | NCI-H522 > 100 µM | OVCAR-8 > 100 µM | SK-MEL-28 > 100 µM | SN12C > 100 µM | SNB-75 > 100 µM | SW-620 > 100 µM | TK-10 > 100 µM | UACC-257 > 100 µM | UACC-62 > 100 µM

O=C1c2cnccc2Cc2cccc3c2N1c1ccccc1S3
inactive: A549 23.6 µM | ACHN 19 µM | CAKI-1 2.88 µM | HCT-116 19 µM | HOP-92 9.23 µM | NCI-H23 20.1 µM | NCI-H522 12.5 µM | SK-MEL-28 26.1 µM | SN12C 29 µM | SNB-75 12.6 µM | SW-620 27.8 µM | UACC-257 23.3 µM | UACC-62 18 µM

CC(=O)OC1=C2CC[C@@H]3C(CC[C@@]4(C)C3CC[C@@H]4OC(C)=O)[C@@]2(C)CC(C#N)C1=O (stereo partly drawn)
inactive: A549 30.8 µM | ACHN 20.8 µM | HCT-116 27.6 µM | HOP-92 15.1 µM | NCI-H23 27.9 µM | OVCAR-5 26.4 µM | OVCAR-8 30.9 µM | SK-MEL-28 30.3 µM | SN12C 28.6 µM | SNB-75 14.5 µM | SW-620 35.7 µM | TK-10 23.6 µM | UACC-257 29.3 µM | UACC-62 12.8 µM

Cc1cc(C)c(C(=O)O)c(N)c1O
inactive: A549 > 100 µM | ACHN > 100 µM | CAKI-1 > 100 µM | HCT-116 > 100 µM | NCI-H23 > 100 µM | NCI-H522 > 100 µM | OVCAR-5 > 100 µM | OVCAR-8 > 100 µM | SK-MEL-28 > 100 µM | SN12C > 100 µM | SNB-75 > 100 µM | SW-620 > 100 µM | TK-10 > 100 µM | UACC-257 > 100 µM | UACC-62 > 100 µM

COc1cc(C(=O)N2CCc3c([nH]c4c([N+](=O)[O-])c(OC)ccc34)C2C)cc(OC)c1OC (stereo not drawn)
inactive: A549 > 100 µM | ACHN > 100 µM | CAKI-1 > 100 µM | HCT-116 > 100 µM | NCI-H23 > 100 µM | NCI-H522 > 100 µM | OVCAR-5 > 100 µM | OVCAR-8 > 100 µM | SK-MEL-28 > 100 µM | SN12C > 100 µM | SNB-75 40.8 µM | SW-620 > 100 µM | TK-10 > 100 µM | UACC-257 > 100 µM | UACC-62 20.1 µM

Oc1cc(-c2cccs2)nc2cc3c(cc12)OCO3
inactive: A549 4.9 µM | ACHN 7.31 µM | HCT-116 4.14 µM | HOP-92 > 100 µM | NCI-H23 3.78 µM | NCI-H522 2.05 µM | OVCAR-5 7.98 µM | OVCAR-8 4.66 µM | SK-MEL-28 9.33 µM | SN12C 6.76 µM | SNB-75 1.41 µM | SW-620 3.03 µM | TK-10 21.3 µM | UACC-257 3.72 µM | UACC-62 2.92 µM

Cc1cccc(C)c1N1C(=O)C(=O)C(c2nc3ccccc3s2)/C(=N/c2cccc3c(=O)[nH][nH]c(=O)c23)C1=O (stereo not drawn)
inactive: A549 > 100 µM | ACHN > 100 µM | CAKI-1 > 100 µM | HCT-116 > 100 µM | HOP-92 92 µM | NCI-H23 > 100 µM | OVCAR-5 > 100 µM | OVCAR-8 > 100 µM | SK-MEL-28 > 100 µM | SN12C > 100 µM | SNB-75 81.8 µM | SW-620 > 100 µM | TK-10 > 100 µM | UACC-257 > 100 µM | UACC-62 > 100 µM

Cc1cc(N(CCC#N)CCC#N)ccc1/N=N/c1ccccc1[N+](=O)[O-]
inactive: A549 > 100 µM | ACHN > 100 µM | CAKI-1 > 100 µM | NCI-H23 > 100 µM | NCI-H522 > 100 µM | OVCAR-5 > 100 µM | OVCAR-8 > 100 µM | SK-MEL-28 > 100 µM | SN12C > 100 µM | SNB-75 34 µM | SW-620 > 100 µM | TK-10 > 100 µM | UACC-257 > 100 µM | UACC-62 > 100 µM

CC1=C(C(=O)Nc2ccc(C)cc2)C(c2cccc([N+](=O)[O-])c2)C(C(=O)Nc2ccc(C)cc2)=C(C)N1
inactive: A549 26.2 µM | ACHN 18.8 µM | CAKI-1 27.9 µM | HCT-116 35.6 µM | NCI-H23 25.2 µM | NCI-H522 27.4 µM | OVCAR-5 53.2 µM | OVCAR-8 40 µM | SK-MEL-28 28.8 µM | SN12C 20.9 µM | SNB-75 16.7 µM | SW-620 35.2 µM | TK-10 31.6 µM | UACC-257 21.2 µM | UACC-62 13.3 µM
